The assay has as its target mouse TRPM3α2 (mTRPM3) ion channel (Mus musculus (Mouse), UniProt J9SQF3). As to the kind of experiment: TRPM3 ion channel driven Ca2+ uptake, Fluo-4 AM assay, mTRPM3alpha2 overexpressing flip-in HEK293 cells stimulated with pregnenolone sulfate. The class given is cell-based. Particulars: for pIC50: PS (50 μM) stimulated; for IC50: PS 50 μM. In a few lines: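 Read-out is Ca2+ influx via Fluo-4 AM fluorescence at 485/535 nm, taken right after seeding ~2000 cells/well onto compound with 50 μM PS. Inhibition computed from RFU between vehicle-stimulated and positive-control-inhibitor wells; cells were mTRPM3α2-overexpressing flip-in HEK293.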

In patent US12209081B2 (Katholieke Universiteit Leuven, priority 2020, dated 2025) one finds IC50 data, which are given here for 35 molecules.

pIC50: −log10 of the molar value.

mouse TRPM3α2 (mTRPM3) ion channel, sequence (J9SQF3 other isoform, or with tags, fused parts or gaps): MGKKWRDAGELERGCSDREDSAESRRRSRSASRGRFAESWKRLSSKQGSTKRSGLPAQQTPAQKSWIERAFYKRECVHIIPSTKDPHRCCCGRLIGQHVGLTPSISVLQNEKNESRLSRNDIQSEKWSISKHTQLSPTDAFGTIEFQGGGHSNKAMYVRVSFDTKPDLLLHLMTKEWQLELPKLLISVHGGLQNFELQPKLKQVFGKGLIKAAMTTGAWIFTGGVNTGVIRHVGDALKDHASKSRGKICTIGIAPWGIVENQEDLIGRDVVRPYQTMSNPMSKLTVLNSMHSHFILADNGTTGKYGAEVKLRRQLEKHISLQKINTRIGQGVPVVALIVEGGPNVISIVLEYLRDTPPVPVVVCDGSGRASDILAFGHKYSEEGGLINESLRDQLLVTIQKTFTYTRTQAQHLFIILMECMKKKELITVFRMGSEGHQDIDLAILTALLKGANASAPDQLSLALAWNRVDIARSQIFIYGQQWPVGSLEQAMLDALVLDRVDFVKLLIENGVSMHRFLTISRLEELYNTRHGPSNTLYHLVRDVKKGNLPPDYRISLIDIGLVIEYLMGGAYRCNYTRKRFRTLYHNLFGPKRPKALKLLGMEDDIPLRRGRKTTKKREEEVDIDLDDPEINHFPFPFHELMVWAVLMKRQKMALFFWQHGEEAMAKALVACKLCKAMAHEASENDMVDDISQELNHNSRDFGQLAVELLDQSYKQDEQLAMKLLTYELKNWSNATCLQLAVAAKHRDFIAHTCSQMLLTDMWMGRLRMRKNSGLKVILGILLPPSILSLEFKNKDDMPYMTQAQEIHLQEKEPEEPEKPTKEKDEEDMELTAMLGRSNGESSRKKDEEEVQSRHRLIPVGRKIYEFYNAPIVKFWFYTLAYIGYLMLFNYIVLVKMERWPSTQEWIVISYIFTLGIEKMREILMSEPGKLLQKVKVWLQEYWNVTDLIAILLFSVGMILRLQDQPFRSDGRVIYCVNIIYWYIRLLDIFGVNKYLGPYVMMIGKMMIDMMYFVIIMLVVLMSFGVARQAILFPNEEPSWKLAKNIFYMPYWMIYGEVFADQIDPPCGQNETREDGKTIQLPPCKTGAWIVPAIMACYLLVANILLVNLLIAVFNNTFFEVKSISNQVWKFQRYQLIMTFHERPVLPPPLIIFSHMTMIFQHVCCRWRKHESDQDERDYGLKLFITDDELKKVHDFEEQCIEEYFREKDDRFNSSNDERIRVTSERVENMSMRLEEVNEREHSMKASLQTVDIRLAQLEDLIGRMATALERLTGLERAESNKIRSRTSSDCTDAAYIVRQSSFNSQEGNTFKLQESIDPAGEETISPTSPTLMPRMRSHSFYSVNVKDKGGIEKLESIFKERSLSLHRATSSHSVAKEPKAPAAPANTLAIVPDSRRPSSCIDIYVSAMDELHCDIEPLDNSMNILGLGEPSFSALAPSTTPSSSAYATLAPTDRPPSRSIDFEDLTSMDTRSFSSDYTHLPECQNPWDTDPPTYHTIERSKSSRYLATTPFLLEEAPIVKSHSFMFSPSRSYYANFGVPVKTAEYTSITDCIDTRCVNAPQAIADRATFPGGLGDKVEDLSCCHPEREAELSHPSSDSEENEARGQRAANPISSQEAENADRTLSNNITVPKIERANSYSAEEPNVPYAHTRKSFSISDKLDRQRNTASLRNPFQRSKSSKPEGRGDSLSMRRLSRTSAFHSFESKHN

On to `Cc1ncc(COc2ccc3oc(C)c(C(=O)NC(Cn4cncn4)C(N)=O)c3c2)s1` (single isomer, unassigned) [432-En 1, N-(1-amino-1-oxo-3-(1H-1,2,4-triazol-1-yl)propan-2-yl)-2-methyl-5-((2-methylthiazol-5-yl)methoxy)benzofuran-3-carboxamide], for which the pIC50 (cpds. 400-499) was 4.70 to 6.00.
In the case of `Cc1ncsc1COc1ccc2oc(C)c(C(N)=O)c2c1` [compound 232, 2-methyl-5-((4-methylthiazol-5-yl)methoxy)benzofuran-3-carboxamide], where the note is “cpds 200-299”, the IC50 was under 1 µM.
For the molecule `Cc1oc2ccc(OCc3ncccc3C(F)F)cc2c1C(=O)NC1CCNCC1(F)F` (centres unmarked) [compound 717, 5-((3-(Difluoromethyl)pyridin-2-yl)methoxy)-N-(3,3-difluoropiperidin-4-yl)-2-methylbenzofuran-3-carboxamide], the pIC50 (cpds. 667-751) was over 6.00.
`Cc1ccc(COc2ccc3oc(C)c(C(=O)NC4CCNCC4(F)F)c3c2)nn1` (single isomer, unassigned) [cpd 556-En 2] gave a pIC50 (cpds. 500-599) of under 4.70.
In the case of `Cc1oc2ccc(OCc3ccnn3CC(F)F)cc2c1C(=O)NC1(CO)CCCNC1=O` (single isomer, unassigned) [332-En 1, 5-((1-(2,2-difluoroethyl)-1H-pyrazol-5-yl)methoxy)-N-(3-(hydroxymethyl)-2-oxopiperidin-3-yl)-2-methylbenzofuran-3-carboxamide], under “cpds 300-399”, the IC50 was under 1 µM.
Consider `Cc1oc2ccc(OCc3ccnn3C)cc2c1C(=O)NC1(CO)CCOCC1` [compound 608, N-(4-(hydroxymethyl)tetrahydro-2H-pyran-4-yl)-2-methyl-5-((1-methyl-1H-pyrazol-5-yl)methoxy)benzofuran-3-carboxamide], for which the pIC50 (cpds. 608-666) was over 6.00.
Consider `Cc1cc2oc(C)c(C(=O)NC3CCNCC3(F)F)c2cc1OCc1cccnc1C(F)(F)F` (single isomer, unassigned) [179-En 2, N-(3,3-difluoropiperidin-4-yl)-2,6-dimethyl-5-((2-(trifluoromethyl)pyridin-3-yl)methoxy)benzo-furan-3-carboxamide], for which the pIC50 (cpd 001-199) was under 4.70.
`Cc1oc2ccc(OCc3ccnn3C)cc2c1C(=O)O` [compound 008, 2-methyl-5-((1-methyl-1H-pyrazol-5-yl)methoxy)benzofuran-3-carboxylic acid] had a pIC50 (cpd 001-199) of under 4.70.
Under “cpds. 667-751”, `Cc1oc2ccc(OCc3ccccn3)cc2c1C(=O)NC(C)(CO)C(N)=O` (single isomer, unassigned) [cpd 738-En 1] showed a pIC50 of over 6.00.
On to `Cc1oc2ccc(OCc3cccnc3O)cc2c1C(=O)NC1(CO)CCOC1` (single isomer, unassigned) [cpd 535-En 1], for which the pIC50 (cpds. 500-599) was over 6.00.
Molecule `Cc1oc2c(C#N)cc(OCc3cccnc3C(F)(F)F)cc2c1C(=O)NC1CCNCC1(F)F` (single isomer, unassigned) [196-En 1, 7-cyano-N-(3,3-difluoropiperidin-4-yl)-2-methyl-5-((2-(trifluoro-methyl)pyridin-3-yl)methoxy)benzofuran-3-carboxamide] gave a pIC50 (cpd 001-199) of under 4.70.
On to `Cc1oc2ccc(OCc3cccnc3C(F)(F)F)cc2c1C(=O)NC1CNCC1(F)F` (single isomer, unassigned) [cpd 105-En 1, N-(4,4-difluoropyrrolidin-3-yl)-2-methyl-5-((2-(trifluoromethyl)pyridin-3-yl)methoxy)benzofuran-3-carboxamide], for which the pIC50 (cpd 001-199) is over 6.00.
With `Cc1ncsc1COc1ccc2oc(C)c(C(=O)NC3CCOC3)c2c1` (single isomer, unassigned) [cpd 159-En 1], the pIC50 (cpd 001-199) is over 6.00.
Same read-out and setting: for `Cc1ncsc1COc1ccc2oc(C)c(C(=O)NC3(CCO)CCOC3)c2c1` (single isomer, unassigned) [121-En 1, N-(3-(2-hydroxyethyl)tetrahydrofuran-3-yl)-2-methyl-5-((4-methylthiazol-5-yl)methoxy)benzo-furan-3-carboxamide] the value was over 6.00.
Where the note is “cpds. 400-499”, `Cc1ncc(COc2ccc3oc(C)c(C(=O)NC(C)(C)C(N)=O)c3c2)s1` [compound 439, N-(1-amino-2-methyl-1-oxopropan-2-yl)-2-methyl-5-((2-methylthiazol-5-yl)methoxy)benzofuran-3-carboxamide] had a pIC50 of over 6.00.
In turn, `Cc1oc2ccc(OCc3nccn3C)cc2c1C(=O)NC1CNCCC1(F)F` (single isomer, unassigned) [cpd 635-En 2] had a pIC50 (cpds. 608-666) of 4.70 to 6.00.
Under “cpd 001-199”, `Cc1ncsc1COc1ccc2oc(C)c(C(=O)NC3(CO)CC3)c2c1` [compound 139, N-(1-(hydroxymethyl)cyclopropyl)-2-methyl-5-((4-methylthiazol-5-yl)methoxy)benzofuran-3-carboxamide] gave a pIC50 of over 6.00.
Regarding `Cc1ncsc1COc1ccc2oc(C)c(C(=O)NC3COCC3O)c2c1` (single isomer, unassigned; dia 1) [162-Dia 1-En2], the pIC50 (cpd 001-199) was over 6.00.
On to `Cc1ncc(COc2ccc3oc(C)c(C(=O)NC4(CO)CCOCC4)c3c2)s1` [compound 613, N-(4-(hydroxymethyl)tetrahydro-2H-pyran-4-yl)-2-methyl-5-((2-methylthiazol-5-yl)methoxy)benzofuran-3-carboxamide], for which the pIC50 (cpds. 608-666) was over 6.00.
For the setting “cpds. 667-751”, `Cc1oc2ccc(OCc3ccnn3CC3CC3)cc2c1C(=O)N[C@@H](CO)C(N)=O` [compound 690, (S)-N-(1-amino-3-hydroxy-1-oxopropan-2-yl)-5-((1-(cyclopropylmethyl)-1H-pyrazol-5-yl)methoxy)-2-methylbenzofuran-3-carboxamide] gave a pIC50 of over 6.00.
In turn, `CNC(=O)C1(NC(=O)c2c(C)oc3ccc(OCc4scnc4C)cc23)COC1` [compound 324, 2-methyl-N-(3-(methylcarbamoyl)oxetan-3-yl)-5-((4-methylthiazol-5-yl)methoxy)benzofuran-3-carboxamide] displayed an IC50 (cpds 300-399) of under 1 µM.
Turning to `Cc1ncsc1COc1ccc2oc(C)c(C(=O)NC3(CO)CCOCC3)c2c1C#N` [compound 193], where the note is “cpd 001-199”, the pIC50 was under 4.70.
In turn, `Cc1oc2ccc(OCc3cccnc3C(F)(F)F)cc2c1C(=O)Nc1ccn(C)n1` [compound 146, 2-methyl-N-(1-methyl-1H-pyrazol-3-yl)-5-((2-(trifluoromethyl)pyridin-3-yl)methoxy)benzofuran-3-carboxamide] showed a pIC50 (cpd 001-199) of over 6.00.
`Cc1oc2ccc(OCc3ccccn3)cc2c1C(=O)NC1(CO)CCOC1` (single isomer, unassigned) [cpd 534-En 1] gave a pIC50 (cpds. 500-599) of over 6.00.
`NC(=O)[C@H](CO)NC(=O)c1c(C2CC2)oc2ccc(OCc3ccccn3)cc12` [compound 747, (S)-N-(1-Amino-3-hydroxy-1-oxopropan-2-yl)-2-cyclopropyl-5-(pyridin-2-ylmethoxy)benzofuran-3-carboxamide]: for the setting “cpds. 667-751”, the pIC50 was over 6.00.
Where the note is “cpd 001-199”, `Cc1oc2ccc(OCc3nc(C(F)(F)F)cs3)cc2c1C(=O)NC1CCOC1` (centres unmarked) [compound 057, 2-methyl-N-(tetrahydrofuran-3-yl)-5-((4-(trifluoromethyl)thiazol-2-yl)methoxy)benzofuran-3-carboxamide] had a pIC50 of under 4.70.
Molecule `Cc1oc2ccc(OCc3cccnn3)cc2c1C(=O)NC(C)(C)C(N)=O` [compound 441, N-(1-amino-2-methyl-1-oxopropan-2-yl)-2-methyl-5-(pyridazin-3-ylmethoxy)benzofuran-3-carboxamide] gave a negative logarithm of the IC50 (pIC50) (cpds. 400-499) of over 6.00.
Take `Cc1ncsc1COc1cc2c(C(=O)NC3(C(N)=O)COC3)c(C)oc2cc1F` [compound 587, N-(3-carbamoyloxetan-3-yl)-6-fluoro-2-methyl-5-((4-methylthiazol-5-yl)methoxy)benzofuran-3-carboxamide]: the pIC50 (cpds. 500-599) was over 6.00.
In turn, `Cc1oc2c(F)cc(OCc3cccnc3C(F)(F)F)cc2c1C(=O)NC1CCNCC1(F)F` (single isomer, unassigned) [cpd 176-En 2, N-(3,3-difluoropiperidin-4-yl)-7-fluoro-2-methyl-5-((2-(trifluoro-methyl)pyridin-3-yl)methoxy)benzofuran-3-carboxamide] showed a pIC50 (cpd 001-199) of over 6.00.
Under “cpds 300-399”, `Cc1ncc(COc2ccc3oc(C)c(C(=O)NCC4(F)CC4)c3c2)s1` [compound 372, N-((1-fluorocyclopropyl)methyl)-2-methyl-5-((2-methylthiazol-5-yl)methoxy)benzofuran-3-carboxamide] yielded an IC50 of under 1 µM.
Under “cpd 001-199”, `Cc1ncsc1COc1ccc2oc(C)c(C(=O)NC3(CO)CCOCC3)c2c1F` [compound 177, 4-fluoro-N-(4-(hydroxymethyl)tetrahydro-2H-pyran-4-yl)-2-methyl-5-((4-methylthiazol-5-yl) -methoxy)benzofuran-3-carboxamide] showed a pIC50 of over 6.00.
Turning to `Cc1ncsc1COc1ccc2oc(C)c(C(=O)NC(CO)C(N)=O)c2c1` (centres unmarked) [compound 454, N-(1-amino-3-hydroxy-1-oxopropan-2-yl)-2-methyl-5-((4-methylthiazol-5-yl)methoxy)benzofuran-3-carboxamide], under “cpds. 400-499”, the pIC50 was over 6.00.
In the case of `Cc1oc2ccc(OCc3ccnn3C(C)C)cc2c1C(=O)N[C@@H](CO)C(N)=O` [compound 676, (S)-N-(1-amino-3-hydroxy-1-oxopropan-2-yl)-5-((1-isopropyl-1H-pyrazol-5-yl)methoxy)-2-methylbenzofuran-3-carboxamide], for the setting “cpds. 667-751”, the pIC50 was over 6.00.
The molecule `Cc1oc2ccc(OCc3cccnn3)cc2c1C(=O)NC(C)(CO)CO` [compound 427, N-(1,3-dihydroxy-2-methylpropan-2-yl)-2-methyl-5-(pyridazin-3-ylmethoxy)benzofuran-3-carboxamide] showed a pIC50 (cpds. 400-499) of over 6.00.
In the case of `Cc1ncc(COc2ccc3oc(C(F)F)c(C(=O)N[C@@H](CO)C(N)=O)c3c2)s1` [compound 745, (S)-N-(1-amino-3-hydroxy-1-oxopropan-2-yl)-2-(difluoromethyl)-5-((2-methylthiazol-5-yl)methoxy)benzofuran-3-carboxamide], where the note is “cpds. 667-751”, the pIC50 was over 6.00.
